For test [1], the system named is B16 melanoma lung metastases. The settings on record: cited from earlier work.
The subject of a further test is HCT116 xenograft. The settings on record: HCT116 xenograft models; cited from earlier work.
Test [2] concerns eIF4E phosphorylation in normal mouse tissues and xenografted tumors. The settings on record: after oral administration; cited from earlier work.
A further test addresses T1, Full-length human MNK1 (Homo sapiens, UniProt Q9BUB5, T385D).
T1 construct: GST (N); purchased Carna Biosciences 02-145; host or cells: baculovirus expression system
The test can be described thus: MNK1 biochemical IC50 assay (Caliper Mobility Shift Assay). The note with it: read-out: P(IC50) MNK1 (converted).

The next test addresses T2, Full-length human MNK2 (Homo sapiens, UniProt Q9HBH9, T379D).
T2 construct: GST (N); purchased Carna Biosciences 02-146; host or cells: baculovirus expression system
The test can be described thus: MNK2 biochemical IC50 assay (Caliper Mobility Shift Assay). The note with it: read-out: P(IC50) MNK2 (converted).

The test system of test [3] is phosphorylation of eIF4E at ser209 in MV4.11 cell line. Description: MNK cellular activity phospho-eIF4E detection assay (Alphascreen Surefire). It is filed as cell-based. The settings on record: Homo sapiens; MV4.11 cell line, phospho-eIF4E (ser209) Alphascreen Surefire; read-out: P(IC50) elF4E (converted). The essentials:
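AlphaScreen SureFire sandwich-immunoassay readout of phospho-eIF4E Ser209 in lysed MV4.11 cells; acceptor then donor beads, each 1.5 hr at room temperature. Signal normalised to untreated DMSO-only controls; duplicate curves, values averaged over at least 2 independent experiments.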
(In Alpha technology, singlet oxygen from a donor bead excites a nearby acceptor bead.)

T1 sequence (Q9BUB5 1-424 isoform Q9BUB5-2 T344D): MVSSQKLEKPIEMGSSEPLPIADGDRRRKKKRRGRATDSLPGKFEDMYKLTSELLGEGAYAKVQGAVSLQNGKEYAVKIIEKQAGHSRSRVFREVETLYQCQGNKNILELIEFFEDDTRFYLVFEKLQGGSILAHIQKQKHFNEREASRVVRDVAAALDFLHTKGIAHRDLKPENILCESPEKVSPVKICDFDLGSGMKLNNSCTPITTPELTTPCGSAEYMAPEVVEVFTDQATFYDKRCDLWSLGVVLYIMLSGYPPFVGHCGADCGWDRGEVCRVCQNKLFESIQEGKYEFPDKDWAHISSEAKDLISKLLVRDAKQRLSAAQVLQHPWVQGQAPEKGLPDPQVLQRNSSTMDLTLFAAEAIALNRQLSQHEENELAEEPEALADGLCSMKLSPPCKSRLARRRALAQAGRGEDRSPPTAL
T2 sequence (Q9HBH9 whole entry T379D): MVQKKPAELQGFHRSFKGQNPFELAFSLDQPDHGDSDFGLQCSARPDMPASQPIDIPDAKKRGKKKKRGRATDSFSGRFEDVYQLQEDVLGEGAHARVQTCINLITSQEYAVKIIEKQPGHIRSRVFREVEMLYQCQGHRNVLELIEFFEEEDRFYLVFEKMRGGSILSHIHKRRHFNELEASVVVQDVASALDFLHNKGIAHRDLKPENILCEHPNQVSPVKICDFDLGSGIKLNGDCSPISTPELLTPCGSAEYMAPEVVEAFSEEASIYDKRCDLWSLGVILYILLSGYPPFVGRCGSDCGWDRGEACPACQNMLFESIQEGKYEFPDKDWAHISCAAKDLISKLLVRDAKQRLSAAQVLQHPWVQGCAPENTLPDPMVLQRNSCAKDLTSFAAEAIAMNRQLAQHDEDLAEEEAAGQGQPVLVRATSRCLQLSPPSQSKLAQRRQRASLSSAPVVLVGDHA

For the molecule `CC(=O)C1=C(O)C=C2Oc3c(C(N)=O)c(O)cc(O)c3[C@]2(C)C1=O` [cercosporamide], the “outgrowth of lung metastases” value in test [1] is recorded as “suppressing the outgrowth”. Further, the tumor growth result in the test with HCT116 xenograft is given as “reducing tumor growth”. In addition, the “time to effective block of eIF4E phosphorylation” value in test [2] was at most 30 min.
As usually defined, the IC50 is the midpoint of a concentration-inhibition curve. `N#Cc1ccc2c(c1)CCN2c1ncnc2sc(C(=O)NC3CCOCC3)nc12` [Example 42, 7-(5-cyano-2,3-dihydro-1H-indol-1-yl)-N-(tetrahydro-2H-pyran-4-yl)[1,3]thiazolo[5,4-d]pyrimidine-2-carboxamide]: the IC50 was 31.6 nM on Full-length human MNK1, 20 nM on Full-length human MNK2 and 31.6 nM in test [3].
Consider `CN(C)CCCNC(=O)c1nc2c(Nc3ccc(F)cc3O[C@@H]3CCCC[C@H]3O)ncnc2s1` [Example 15, N-[3-(dimethylamino)propyl]-7-[4-fluoro-2-[(1R,2R)-2-hydroxycyclohexoxy]anilino]thiazolo[5,4-d]pyrimidine-2-carboxamide], for which the IC50 at Full-length human MNK1 was 794 nM; at Full-length human MNK2 it was 631 nM; in test [3], 251 nM.
In the same order, the values of `O=C(NCC1CCNCC1)c1nc2c(N3CC(CO)c4ccccc43)ncnc2s1` (stereo not drawn) [Example 135, 7-[3-(Hydroxymethyl)indolin-1-yl]-N-(4-piperidylmethyl)thiazolo[5,4-d]pyrimidine-2-carboxamide] are 10 nM, 7.94 nM and 31.6 nM.
The like results for `CC(C)Oc1cc(F)ccc1Nc1ncnc2sc(C(=O)NCCN(C)C)nc12` [Example 39, N-[2-(dimethylamino)ethyl]-7-{[4-fluoro-2-(propan-2-yloxy)phenyl]amino}[1,3]thiazolo[5,4-d]pyrimidine-2-carboxamide] were, in that order, 158 nM, 126 nM and 63.1 nM.
As for `CN1CCC(NC(=O)c2nc3c(N4CCc5cc(F)ccc54)ncnc3s2)CC1` [Example 67, 7-(5-fluoroindolin-1-yl)-N-(1-methyl-4-piperidyl)thiazolo[5,4-d]pyrimidine-2-carboxamide], the values for the IC50 (at Full-length human MNK1; on Full-length human MNK2; in test [3]) were 3.98 nM, 3.16 nM and 3.98 nM, respectively.
`O=C(NC1COC1)c1nc2c(N3CCc4cc(F)ccc43)ncnc2s1` [Example 76, 7-(5-fluoroindolin-1-yl)-N-(oxetan-3-yl)thiazolo[5,4-d]pyrimidine-2-carboxamide]: the IC50 was 6.31 nM at Full-length human MNK1, 3.16 nM on Full-length human MNK2 and 7.94 nM in test [3].
As to `CN1CCN(C(=O)c2nc3c(N4CCc5cc(F)ccc54)ncnc3s2)CC1` [Example 65, [7-(5-fluoroindolin-1-yl)thiazolo[5,4-d]pyrimidin-2-yl]-(4-methylpiperazin-1-yl)methanone], the results for the half-inhibitory concentration (IC50) (at Full-length human MNK1; on Full-length human MNK2; in test [3]) were 79.4 nM, 79.4 nM and 251 nM, respectively.
On to `CN(C)CCCNC(=O)c1nc2c(Nc3ccc(F)cc3O[C@@H]3CCCOC3)ncnc2s1` [Example 16, N-[3-(dimethylamino)propyl]-7-[4-fluoro-2-[(3R)-tetrahydropyran-3-yl]oxy-anilino]thiazolo[5,4-d]pyrimidine-2-carboxamide], for which the figures for the IC50 (on Full-length human MNK1; on Full-length human MNK2; in test [3]) were 100 nM, 100 nM and 158 nM, respectively.
Turning to `Cc1ccc2c(c1)CCN2c1ncnc2sc(C(=O)NCC3CCNCC3)nc12` [Example 170, 7-(5-Methylindolin-1-yl)-N-(4-piperidylmethyl)thiazolo[5,4-d]pyrimidine-2-carboxamide], the IC50 at Full-length human MNK1 is 63.1 nM; on Full-length human MNK2, 25.1 nM; in test [3], 79.4 nM.
In the same order, the values of `O=C(NCCN1CCCC1)c1nc2c(N3CCc4cc(F)ccc43)ncnc2s1` [Example 74, 7-(5-fluoroindolin-1-yl)-N-(2-pyrrolidin-1-ylethyl)thiazolo[5,4-d]pyrimidine-2-carboxamide] are 6.31 nM, 5.01 nM and 20 nM.
The like results for `CC(C)Oc1cc(F)ccc1Nc1ncnc2sc(C(=O)NC3CC4CCC(C3)N4C(=O)OC(C)(C)C)nc12` (stereo not drawn) [Example 6, tert-butyl 3-[[7-(4-fluoro-2-isopropoxy-anilino)thiazolo[5,4-d]pyrimidine-2-carbonyl]amino]-8-azabicyclo[3.2.1]octane-8-carboxylate] were, in that order, 794 nM, 398 nM and 251 nM.
The like results for `O=C(NC1CCOCC1)c1nc2c(N3CC(CCN4CCCC4)c4ccccc43)ncnc2s1` (stereo not drawn) [Example 153, 7-[3-(2-pyrrolidin-1-ylethyl)indolin-1-yl]-N-tetrahydropyran-4-yl-thiazolo[5,4-d]pyrimidine-2-carboxamide] were, in that order, 50.1 nM, 50.1 nM and 100 nM.
Turning to `O=C(NCC1CCOCC1)c1nc2c(N3CCc4ccccc43)ncnc2s1` [Example 103, 7-indolin-1-yl-N-(tetrahydropyran-4-ylmethyl)thiazoto[5,4-d]pyrimidine-2-carboxamide], the IC50 was 10 nM at Full-length human MNK1, 10 nM at Full-length human MNK2 and 63.1 nM in test [3].
As to `O=C(NCC1CCNCC1)c1nc2c(N3CC(CCO)c4cc(F)ccc43)ncnc2s1` (stereo not drawn) [Example 139], the IC50 at Full-length human MNK1 was 2.51 nM; on Full-length human MNK2, 3.16 nM; in test [3] it was 31.6 nM.
As for `CN1CCN(C(=O)c2nc3c(N4CCc5ccccc54)ncnc3s2)CC1` [Example 96, (7-indolin-1-ylthiazolo[5,4-d]pyrimidin-2-yl)-(4-methylpiperazin-1-yl)methanone], the results for the IC50 (at Full-length human MNK1; on Full-length human MNK2; in test [3]) were 398 nM, 251 nM and 501 nM, respectively.
`O=C(NC1CCOCC1)c1nc2c(N3CC(CCN4CCOCC4)c4ccccc43)ncnc2s1` (stereo not drawn) [Example 154, 7-[3-(2-morpholinoethyl)indolin-1-yl]-N-tetrahydropyran-4-yl-thiazolo[5,4-d]pyrimidine-2-carboxamide]: the results for the half-inhibitory concentration (IC50) (on Full-length human MNK1; at Full-length human MNK2; in test [3]) were 79.4 nM, 79.4 nM and 100 nM, respectively.
As for `CC(C)Oc1cc(F)ccc1Nc1ncnc2sc(C(=O)NC3CCS(=O)(=O)CC3)nc12` [Example 34, N-(1,1-dioxidotetrahydro-2H-thiopyran-4-yl)-7-{[4-fluoro-2-(propan-2-yloxy)phenyl]amino}[1,3]thiazolo[5,4-d]pyrimidine-2-carboxamide], the IC50 at Full-length human MNK1 was 200 nM; on Full-length human MNK2, 158 nM; in test [3], 79.4 nM.
For the molecule `C[C@@H]1Cc2ccccc2N1c1ncnc2sc(C(=O)NC3CCNCC3)nc12` [Example 129, 7-[(2R)-2-methylindolin-1-yl]-N-(4-piperidyl) thiazolo[5,4-d]pyrimidine-2-carboxamide], the IC50 was 15.8 nM at Full-length human MNK1, 15.8 nM on Full-length human MNK2 and 79.4 nM in test [3].
For `CC(C)Oc1cc(F)ccc1Nc1ncnc2sc(C(=O)NCCCN(C)C)nc12` [Example 3, N-[3-(Dimethylamino)propyl]-7-(4-fluoro-2-isopropoxy-anilino)thiazolo[5,4-d]pyrimidine-2-carboxamide], the IC50 is 63.1 nM on Full-length human MNK1, 50.1 nM at Full-length human MNK2 and 50.1 nM in test [3].
With `CNC(=O)c1nc2c(N3CCc4cc(F)ccc43)ncnc2s1` [Example 69, 7-(5-fluoroindolin-1-yl)-N-methyl-thiazolo[5,4-d]pyrimidine-2-carboxamide], the IC50 is 6.31 nM on Full-length human MNK1, 5.01 nM on Full-length human MNK2 and 6.31 nM in test [3].
As to `CNCCC1CN(c2ncnc3sc(C(=O)NC4CCOCC4)nc23)c2ccccc21` (stereo not drawn) [Example 115, 7-[3-[2-(Methylamino)ethyl]indolin-1-yl]-N-tetrahydropyran-4-yl-thiazolo[5,4-d]pyrimidine-2-carboxamide], the half-maximal inhibitory concentration (IC50) was 31.6 nM on Full-length human MNK1, 15.8 nM on Full-length human MNK2 and 126 nM in test [3].
In the same order, the values of `CNCCCNC(=O)c1nc2c(N3CCc4cc(F)ccc43)ncnc2s1` [Example 72, 7-(5-fluoroindolin-1-yl)-N-[3-(methylamino)propyl]thiazolo[5,4-d]pyrimidine-2-carboxamide] are 5.01 nM, 5.01 nM and 5.01 nM.
As to `Nc1nc2c(N3CCc4cc(F)ccc43)ncnc2s1` [Example 83, 7-(5-Fluoroindolin-1-yl)thiazolo[5,4-d]pyrimidin-2-amine], the IC50 on Full-length human MNK1 is 31.6 nM; at Full-length human MNK2, 39.8 nM; in test [3], 126 nM.
The like results for `CNCC1CN(c2ncnc3sc(C(=O)NC4CCOCC4)nc23)c2ccccc21` (stereo not drawn) [Example 120, 7-[3-(Methylaminomethyl)indolin-1-yl]-N-tetrahydropyran-4-yl-thiazolo[5,4-d]pyrimidine-2-carboxamide] were, in that order, 50.1 nM, 31.6 nM and 126 nM.
In the case of `CC(C)Oc1cc(F)ccc1Nc1ncnc2sc(C(=O)NCC(O)CO)nc12` (stereo not drawn) [Example 12, N-(2,3-dihydroxypropyl)-7-(4-fluoro-2-isopropoxy-anilino)thiazolo[5,4-d]pyrimidine-2-carboxamide], the IC50 was 126 nM on Full-length human MNK1, 63.1 nM at Full-length human MNK2 and 50.1 nM in test [3].

These data come from US10669284B2, “Fused thiazolopyrimidine derivatives as MNKS inhibitors” (LIFEARC, priority 2015, dated 2020).
